The test system of assay [1] is Sweetpotato Whitefly-Crawler (WF) (Bemisia tabaci) (BEMITA). The experiment in a line: Insecticidal test for Sweetpotato Whitefly-Crawler (WF) in foliar spray assay on cotton plants. In kind it is in vivo. The following applies: 216 h, read-out: WF 200 ppm, % Control (or Mortality) rating. Summed up: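 Cotton plants carrying 200–400 whitefly eggs sprayed to run-off on both leaf surfaces at 200 ppm (acetone/0.025% Tween 20), four plants per treatment. After 9 days at about 25 °C, live 3rd–4th instar nymphs counted; Abbott-corrected percent control versus solvent check.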

For assay [2], the system named is Green Peach Aphid (GPA) (Myzus persicae) (MYZUPE). The experiment in a line: Bioassay for Green Peach Aphid (GPA), foliar spray on cabbage seedlings. In kind it is in vivo. The note with it: 72 h, read-out: GPA 200 ppm, % Control (or Mortality) rating. Summed up:
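Cabbage seedlings infested with 20-50 GPA (wingless adults and nymphs) one day before spraying to runoff with 200 ppm compound; four pots per treatment. Live aphids counted after three days at ~25° C; percent control by Abbott's correction against solvent-sprayed plants.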

The mark [3] stands for this setting: 200 ppm foliar spray on cotton plants, graded after 9 days, Abbott corrected % control.
The mark [4] stands for this setting: 200 ppm foliar spray on cabbage seedlings, graded after three days, Abbott corrected % control.

Usually mortality stands for the percentage killed.

Read-outs that look alike come from different tables or passages of the source.

`CCN(C(=O)CCCC1CNC1=O)c1cn(-c2cccnc2)nc1Cl` (centres unmarked) [Compound F58]: the mortality at 200 ppm in assay [1] (setting [3]) and in assay [2] (setting [4]) was 80 to 100% throughout.
For `CN(C(=O)CN1CCSC1=O)c1cn(-c2cccnc2)nc1Cl` [Compound F7, N-(3-Chloro-1-(pyridin-3-yl)-1H-pyrazol-4-yl)-N-methyl-2-(2-oxothiazolidin-3-yl)acetamide], the mortality at 200 ppm in assay [1] (setting [3]) lay in the range of 80 to 100%; in assay [2] (setting [4]), 0 to 80%.
In the case of `CCN(C(=O)CCCC1CN(C)C1=O)c1cn(-c2cccnc2)nc1Cl` (centres unmarked) [Compound F53, N-(3-Chloro-1-(pyridin-3-yl)-1H-pyrazol-4-yl)-N-ethyl-4-(1-methyl-2-oxoazetidin-3-yl)butanamide], the mortality at 200 ppm in assay [1] (setting [3]) and in assay [2] (setting [4]) was 80 to 100% each time.
As to `CCN(C(=O)CCC(=O)N(C)Cc1ccc(F)cc1)c1cn(-c2cccnc2)nc1Cl` [Compound F118, N1-(3-Chloro-1-(pyridin-3-yl)-1H-pyrazol-4-yl)-N1-ethyl-N4-(4-fluorobenzyl)-N4-methylsuccinamide], the mortality at 200 ppm in assay [1] (setting [3]) and in assay [2] (setting [4]) was 80 to 100% throughout.
Consider `CCN(C(=O)CCN(C)C(=O)N(C)C)c1cn(-c2cccnc2)nc1Cl` [Compound F121, N-(3-Chloro-1-(pyridin-3-yl)-1H-pyrazol-4-yl)-N-ethyl-3-(1,3,3-trimethylureido)propanamide], for which the mortality at 200 ppm in assay [1] (setting [3]) and in assay [2] (setting [4]) was 80 to 100% in each case.
Take `CCN(C(=O)CCCN1CCOC1=O)c1cn(-c2cccnc2)nc1Cl` [FA34, N-(3-Chloro-1-(pyridin-3-yl)-1H-pyrazol-4-yl)-N-ethyl-4-(2-oxooxazolidin-3-yl)butanamide]: the mortality at 200 ppm in assay [1] (setting [3]) and in assay [2] (setting [4]) was 80 to 100% throughout.
`CCOC(=O)N(C)CCC(=O)N(CC)c1cn(-c2cccnc2)nc1Cl` [Compound F42, Ethyl (3-((3-chloro-1-(pyridin-3-yl)-1H-pyrazol-4-yl)(ethyl)amino)-3-oxopropyl)(methyl)carbamate]: the mortality at 200 ppm in assay [1] (setting [3]) and in assay [2] (setting [4]) was 80 to 100% each time.
Turning to `O=C1CCCN1CC(=O)N(CC1CC1)c1cn(-c2cccnc2)nc1Cl` [Compound F98, N-(3-chloro-1-(pyridin-3-yl)-1H-pyrazol-4-yl)-N-(cyclopropylmethyl)-2-(2-oxopyrrolidin-1-yl)acetamide], the mortality at 200 ppm in assay [1] (setting [3]) and in assay [2] (setting [4]) was 80 to 100% throughout.
As to `CCN(C(=O)CC/C(C)=N/OCCC1CC1(F)F)c1cn(-c2cccnc2)nc1Cl` (centres unmarked) [FA50, (E)-N-(3-Chloro-1-(pyridin-3-yl)-1H-pyrazol-4-yl)-4-((2-(2,2-difluorocyclopropyl)ethoxy)imino)-N-ethylpentanamide], the mortality at 200 ppm in assay [1] (setting [3]) and in assay [2] (setting [4]) was 80 to 100% in each case.
Take `CCN(C(=O)C1CN(C(=O)CC(F)(F)F)C1)c1cn(-c2cccnc2)nc1Cl` [Compound P24, N-(3-Chloro-1-(pyridin-3-yl)-1H-pyrazol-4-yl)-N-ethyl-1-(3,3,3-trifluoropropanoyl)azetidine-3-carboxamide]: the values for the mortality at 200 ppm in assay [1] (setting [3]) and in assay [2] (setting [4]) were 0 to 80% and 80 to 100%, respectively.
For `CCN(C(=O)CC/C(=N/OCC1CC1(F)F)c1cccs1)c1cn(-c2cccnc2)nc1Cl` (centres unmarked) [FA39, (Z)-N-(3-Chloro-1-(pyridin-3-yl)-1H-pyrazol-4-yl)-4-(((2,2-difluorocyclopropyl)methoxy)imino)-N-ethyl-4-(thiophen-2-yl)butanamide], the mortality at 200 ppm in assay [1] (setting [3]) and in assay [2] (setting [4]) was 0 to 80% in each case.
Regarding `CCN(C(=O)CNC(=O)CC(F)(F)F)c1cn(-c2cccnc2)nc1Cl` [Compound F57, N-(2-((3-Chloro-1-(pyridin-3-yl)-1H-pyrazol-4-yl)(ethyl)amino)-2-oxoethyl)-3,3,3-trifluoropropanamide], the mortality at 200 ppm in assay [1] (setting [3]) and in assay [2] (setting [4]) was 80 to 100% in each case.
In the case of `CCN(C(=O)CC/C(=N/OCCCCC(F)(F)F)c1cccs1)c1cn(-c2cccnc2)nc1Cl` [FA29, (Z)-N-(3-Chloro-1-(pyridin-3-yl)-1H-pyrazol-4-yl)-N-ethyl-4-(thiophen-2-yl)-4-(((5,5,5-trifluoropentyl)oxy)imino)butanamide], the mortality at 200 ppm in assay [1] (setting [3]) lay within 80 to 100%; in assay [2] (setting [4]), 0 to 80%.
Turning to `CN(CC(=O)N(CC1CC1)c1cn(-c2cccnc2)nc1Cl)C(=O)OC(C)(C)C` [Compound F76, tert-Butyl (2-((3-chloro-1-(pyridin-3-yl)-1H-pyrazol-4-yl)(cyclopropylmethyl)amino)-2-oxoethyl) (methyl)carbamate], the mortality at 200 ppm in assay [1] (foliar) and in assay [2] (foliar) was 0 to 80% in each case.
As to `CCN(C(=O)CC/C(=N\OCC1CC1(F)F)c1cccs1)c1cn(-c2cccnc2)nc1Cl` (centres unmarked) [FA38, (E)-N-(3-Chloro-1-(pyridin-3-yl)-1H-pyrazol-4-yl)-4-(((2,2-difluorocyclopropyl)methoxy)imino)-N-ethyl-4-(thiophen-2-yl)butanamide], the mortality at 200 ppm in assay [1] (setting [3]) and in assay [2] (setting [4]) was 0 to 80% throughout.
As for `CCSC(=O)N(C)CCC(=O)N(CC)c1cn(-c2cccnc2)nc1Cl` [Compound F40, S-Ethyl (3-((3-chloro-1-(pyridin-3yl)-1H-pyrazol-4-yl)(ethyl)amino)-3-oxopropyl)(methyl) carbamothioate], the mortality at 200 ppm in assay [1] (setting [3]) and in assay [2] (setting [4]) was 0 to 80% throughout.
Take `CCN(C(=O)CCC1CCNC1=O)c1cn(-c2cccnc2)nc1Cl` (centres unmarked) [Compound F131, N-(3-chloro-1-(pyridin-3-yl)-1H-pyrazol-4-yl)-N-ethyl-3-(2-oxopyrrolidin-3-yl)propanamide]: the mortality at 200 ppm in assay [1] (setting [3]) and in assay [2] (setting [4]) was 80 to 100% each time.
In the case of `CC(=O)CCC(=O)N(C)c1cn(-c2cccnc2)nc1C` [FA69, N-methyl-N-(3-methyl-1-(pyridin-3-yl)-1H-pyrazol-4-yl)-4-oxopentanamide], the mortality at 200 ppm in assay [1] (setting [3]) was in the range of 80 to 100%; in assay [2] (setting [4]), 0 to 80%.
Turning to `CCN(C(=O)CCNC(=O)C1CCN(C(C)=O)CC1)c1cn(-c2cccnc2)nc1Cl` [Compound F112, 1-Acetyl-N-(3-((3-chloro-1-(pyridin-3-yl)-1H-pyrazol-4-yl)(ethyl)amino)-3-oxopropyl)piperidine-4-carboxamide], the mortality at 200 ppm in assay [1] (setting [3]) lay in the range of 80 to 100%; in assay [2] (setting [4]), 0 to 80%.
On to `CCN(C(=O)CCC(C)=NOC)c1cn(-c2cccnc2)nc1Cl` (mixture of isomers) [Compound F92, (E/Z)-N-(3-chloro-1-(pyridin-3-yl)-1H-pyrazol-4-yl)-N-ethyl-4-(methoxyimino) pentanamide], for which the mortality at 200 ppm in assay [1] (setting [3]) and in assay [2] (setting [4]) was 80 to 100% each time.
For `CCN(C(=O)CC1CCN(CCC2CC2(F)F)C1=O)c1cn(-c2cccnc2)nc1Cl` (centres unmarked) [FA64, N-(3-Chloro-1-(pyridin-3-yl)-1H-pyrazol-4-yl)-2-(1-(2-(2,2-difluorocyclopropyl)ethyl)-2-oxopyrrolidin-3-yl)-N-ethylacetamide], the mortality at 200 ppm in assay [1] (setting [3]) and in assay [2] (setting [4]) was 80 to 100% in each case.
Take `CCN(C(=O)C(C)N(C)C(=O)CC(F)(F)F)c1cn(-c2cccnc2)nc1Cl` (centres unmarked) [Compound F66, N-(1-((3-Chloro-1-(pyridin-3-yl)-1H-pyrazol-4-yl)(ethyl)amino)-1-oxopropan-2-yl)-3,3,3-trifluoro-N-methylpropanamide]: the mortality at 200 ppm in assay [1] (setting [3]) and in assay [2] (setting [4]) was 80 to 100% in each case.

These data come from patent US9523100B2, “Pesticidal compositions and related methods” (DOW AGROSCIENCES LLC, priority 2013, dated 2016).
